Results: patent publication US10266806B2, “Stem cell-derived hepatocytes in co-culture and uses thereof” (Colorado State University Research Foundation, priority 2014, dated 2019)
Where a name gives a salt, the structure may show the parent alone.

Key:
[1] = total human plasma concentration; cited from earlier work
iHeps in iMPCCs = conditions: for TC50 in MPCCs Albumin / TC50 in MPCCs Urea / TC50 in MPCCs ATP: human, 6 days
[2] = system: primary human hepatocytes in MPCCs; conditions: (ref 19), cited from earlier work; for TC50 in MPCCs ATP: concentration at which activity decreases by 50% of DMSO-only controls
[3] = negative number: withdrawn from the market; higher positive numbers: greater DILI concern; cited from earlier work
[4] = system: primary hepatocytes (HUM4011)

Cc1ccc(N(CC2=NCCN2)c2cccc(O)c2)cc1 [Phentolamine mesylate]
Cmax [1]: 86 nM | Model predictions iMPCC (binary decision) (iHeps in iMPCCs): −

CCOc1ccc(NC(C)=O)cc1 [Phenacetin]
Model predictions iCC (binary decision) (iHeps in iCCs): − | toxicity call in iCCs (iHeps in iCCs): not identified as toxic | Cmax [1]: 13400 nM | TC50 in MPCCs Albumin (iHeps in iMPCCs): 1213.3 µM | TC50 in MPCCs Urea (iHeps in iMPCCs): 253.3 µM | TC50 in MPCCs Urea [2]: 1076.1 µM

CN1C(C(=O)Nc2ccccn2)=C(O)c2ccccc2S1(=O)=O [Piroxicam]
Cmax [1]: 5140 nM | toxicity call in iMPCCs / iHeps (iHeps in iMPCCs): toxic | DILI Sev (DILI severity scores from the LTKB of the FDA) [3]: 3

Clc1ccc(COC(Cn2ccnc2)c2ccc(Cl)cc2Cl)c(Cl)c1 (stereo not drawn) [Miconazole]
Cmax [1]: 24 nM | Model predictions iMPCC (binary decision) (iHeps in iMPCCs): −

C[C@]12CC[C@@H]3c4ccc(O)cc4CC[C@H]3[C@@H]1CCC2=O [Estrone]
Cmax [1]: 22 nM

O=c1n(CCCN2CCN(c3cccc(Cl)c3)CC2)nc2ccccn12 [Trazodone HCl]
Cmax [1]: 5060 nM | TC50 in MPCCs ATP (iHeps in iMPCCs): 351.5 µM | TC50 in MPCCs Albumin (iHeps in iMPCCs): 205.5 µM | TC50 in MPCCs Urea (iHeps in iMPCCs): 272.4 µM | TC50 in MPCCs Albumin [2]: 64.8 µM | TC50 in MPCCs Urea [2]: 121.8 µM | TC50 in MPCCs ATP [2]: 201.7 µM

CNCCC=C1c2ccccc2CCc2ccccc21 [Nortriptyline HCl]
Cmax [1]: 122 nM | DILI Sev (DILI severity scores from the LTKB of the FDA) [3]: 8

CC(=O)CC(c1ccccc1)c1c(O)c2ccccc2oc1=O (stereo not drawn) [Warfarin]
Cmax [1]: 4890 nM

CCc1oc2ccccc2c1C(=O)c1cc(Br)c(O)c(Br)c1 [Benzbromarone]
Cmax [1]: 4360 nM | DILI Sev (DILI severity scores from the LTKB of the FDA) [3]: −2 | TC50 in MPCCs Albumin [2]: 31.3 µM | TC50 in MPCCs Urea [2]: 27.9 µM | TC50 in MPCCs ATP [2]: 15.1 µM

COC(=O)Nc1nc2ccc(C(=O)c3ccccc3)cc2[nH]1 [Mebendazole]
Cmax [1]: 126 nM | TC50 in MPCCs Albumin (iHeps in iMPCCs): 1.9 µM | TC50 in MPCCs Urea (iHeps in iMPCCs): 2.3 µM | TC50 in MPCCs Albumin [2]: 11.6 µM | TC50 in MPCCs ATP [2]: 11.5 µM

CCCCCCCCCCCCCCCC(=O)OC[C@@H](NC(=O)C(Cl)Cl)[C@H](O)c1ccc([N+](=O)[O-])cc1 [Chloramphenicol palmitate]
Cmax [1]: 20000 nM | Model predictions iMPCC (binary decision) (iHeps in iMPCCs): −

NC(=O)NO [Hydroxyurea]
Cmax [1]: 794000 nM | TC50 in MPCCs ATP (iHeps in iMPCCs): 49358.3 µM | TC50 in MPCCs Albumin (iHeps in iMPCCs): 18398.4 µM | TC50 in MPCCs Albumin [2]: 28616.2 µM | TC50 in MPCCs Urea [2]: 19647.8 µM | TC50 in MPCCs ATP [2]: 7407.0 µM

C#C[C@]1(O)CC[C@H]2[C@@H]3CCC4=Cc5oncc5C[C@]4(C)[C@H]3CC[C@@]21C [Danazol]
Cmax [1]: 74 nM

CC(=O)O[C@]1(C(C)=O)CC[C@H]2[C@@H]3C=C(Cl)C4=CC(=O)[C@@H]5C[C@@H]5[C@]4(C)[C@H]3CC[C@@]21C [Cyproterone acetate]
Model predictions iCC (binary decision) (iHeps in iCCs): − | toxicity call in iCCs (iHeps in iCCs): non-toxic | Cmax [1]: 656 nM | toxicity call in iMPCCs / iHeps (iHeps in iMPCCs): toxic | TC50 in MPCCs Albumin (iHeps in iMPCCs): 51.0 µM | TC50 in MPCCs Urea (iHeps in iMPCCs): 33.1 µM | TC50 in MPCCs Urea [2]: 41.0 µM | TC50 in MPCCs ATP [2]: 39.1 µM

C#CC1(O)CC[C@H]2[C@@H]3CCC4=CC(=O)CC[C@@H]4[C@H]3CC[C@@]21CC (mixture of isomers) [Norgestrel]
Cmax [1]: 9 nM

CNCCc1ccccn1.Cl.Cl [Betahistine 2HCl]
Cmax [1]: 4 nM | Model predictions iMPCC (binary decision) (iHeps in iMPCCs): − | DILI Sev (DILI severity scores from the LTKB of the FDA) [3]: 6

Nc1ccc(S(=O)(=O)c2ccc(N)cc2)cc1 [Dapsone]
toxicity call in another donor of primary hepatocytes [4]: false negative | Cmax [1]: 6010 nM | Model predictions iMPCC (binary decision) (iHeps in iMPCCs): − | toxicity call in iMPCCs / iHeps (iHeps in iMPCCs): false negative result

O=C(O)/C=C\C(=O)O [Maleic acid]
toxicity call in another donor of primary hepatocytes [4]: borderline positive | Cmax [1]: 1000 nM | Model predictions iMPCC (binary decision) (iHeps in iMPCCs): −

CC/C(=C(\c1ccccc1)c1ccc(OCCN(C)C)cc1)c1ccccc1 [Tamoxifen]
Model predictions iCC (binary decision) (iHeps in iCCs): − | Cmax [1]: 162 nM | TC50 in MPCCs Albumin (iHeps in iMPCCs): 4.2 µM | TC50 in MPCCs Urea (iHeps in iMPCCs): 11.7 µM | TC50 in MPCCs Albumin [2]: 3.2 µM | TC50 in MPCCs Urea [2]: 3.9 µM | TC50 in MPCCs ATP [2]: 15.8 µM

CCN(CC)C(=O)/C(C#N)=C/c1cc(O)c(O)c([N+](=O)[O-])c1 [entacapone]
albumin secretions in iMPCCs, toxicity over time and dose (iHeps in iMPCCs): time- and dose-dependent toxicities

Cc1cccc(Nc2ccccc2C(=O)O)c1C [Mefenamic acid]
Cmax [1]: 27000 nM | TC50 in MPCCs ATP (iHeps in iMPCCs): 2551.9 µM | TC50 in MPCCs Albumin (iHeps in iMPCCs): 410.3 µM | TC50 in MPCCs Urea (iHeps in iMPCCs): 572.3 µM | TC50 in MPCCs Albumin [2]: 1291.9 µM | TC50 in MPCCs Urea [2]: 1255.1 µM | TC50 in MPCCs ATP [2]: 1393.4 µM

Cn1cc[nH]c1=S [Methimazole]
Cmax [1]: 1870 nM
